Where a name gives a salt, the structure may show the parent alone. Read-outs that look alike come from different tables or passages of the source.
What was measured:
Type in all cases: biochemical
recombinant PRL-3 = target: T1, recombinant PRL-3 (Homo sapiens, UniProt O75365); test: In vitro phosphatase assay (DiFMUP hydrolysis), PRL-3; also: test concentration or dose not given here
T1 construct: 6xHis (N, cleaved yes); made in house; host or cells: E. coli One Shot BL21 Star

recombinant PRL-1 = target: T2, recombinant PRL-1 (Homo sapiens, UniProt Q93096); test: In vitro phosphatase assay (DiFMUP hydrolysis), PRL-1; also: test concentration or dose not given here
T2 construct: 6xHis (N, cleaved yes); made in house; host or cells: E. coli One Shot BL21 Star
T2 sequence (Q93096 1-173): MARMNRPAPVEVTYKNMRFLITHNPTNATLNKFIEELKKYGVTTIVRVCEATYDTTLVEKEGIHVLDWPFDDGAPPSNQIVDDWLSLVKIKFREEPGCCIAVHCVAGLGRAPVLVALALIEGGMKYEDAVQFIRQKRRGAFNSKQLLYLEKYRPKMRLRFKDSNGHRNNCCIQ

recombinant PRL-2 = target: T3, recombinant PRL-2 (Homo sapiens, UniProt Q12974); test: In vitro phosphatase assay (DiFMUP hydrolysis), PRL-2;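 also: PRL-2 activity read as DiFMUP hydrolysis after 20 min at room temperature with drug, enzyme first pre-reduced at 4 °C for 20 min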
T3 construct: 6xHis (N, cleaved yes); made in house; host or cells: E. coli One Shot BL21 Star
T3 sequence (Q12974 1-167): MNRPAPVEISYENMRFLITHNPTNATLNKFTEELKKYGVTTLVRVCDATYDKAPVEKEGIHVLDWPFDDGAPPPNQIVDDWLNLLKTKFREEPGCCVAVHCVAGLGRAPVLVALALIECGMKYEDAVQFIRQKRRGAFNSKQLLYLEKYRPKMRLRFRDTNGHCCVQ

[1] = FDA-approved drug screen, compared to DMSO

T1 sequence (O75365 whole entry): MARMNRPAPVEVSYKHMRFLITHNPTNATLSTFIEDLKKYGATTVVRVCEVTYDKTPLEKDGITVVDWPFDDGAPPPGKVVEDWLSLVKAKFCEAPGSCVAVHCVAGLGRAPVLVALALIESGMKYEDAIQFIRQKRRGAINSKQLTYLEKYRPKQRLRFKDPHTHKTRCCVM

SMILES	% Phosphatase Activity (compared to DMSO) PRL-3 (recombinant PRL-3; [1])	% Phosphatase Activity (compared to DMSO) PRL-1 (recombinant PRL-1; [1])	% Phosphatase Activity (compared to DMSO) PRL-2 (recombinant PRL-2; [1])	% Phosphatase Activity (compared to DMSO) PRL-3 (recombinant PRL-3)	% Phosphatase Activity (compared to DMSO) PRL-1 (recombinant PRL-1)	% Phosphatase Activity (compared to DMSO) PRL-2 (recombinant PRL-2)
CO/N=C(\C(=O)N[C@@H]1C(=O)N2C(C(=O)O)=C(COC(C)=O)CS[C@H]12)c1csc(N)n1 [Cefotaxime sodium]	91%	112%	118%	–	–	–
CC1=C(C(=O)O)N2C(=O)[C@@H](NC(=O)[C@H](N)C3=CCC=CC3)[C@H]2SC1 [Cefradine]	102%	95%	76%	–	–	–
CC(C)(O/N=C(\C(=O)N[C@@H]1C(=O)N2C(C(=O)[O-])=C(C[n+]3ccccc3)CS[C@H]12)c1csc(N)n1)C(=O)O [Ceftazidime Pentahydrate]	103%	100%	106%	–	–	–
CO/N=C(\C(=O)N[C@@H]1C(=O)N2C(C(=O)O)=C(CSC(=O)c3ccco3)CS[C@H]12)c1csc(N)n1.Cl [Ceftiofur HCl]	84%	107%	104%	–	–	–
CO/N=C(/C(=O)N[C@@H]1C(=O)N2C(C(=O)[O-])=C(CSc3nc(=O)c([O-])nn3C)CS[C@H]12)c1csc(N)n1.O.O.O.[Na+].[Na+] [Ceftriaxone Sodium Trihydrate]	108%	102%	115%	–	–	–
CO/N=C(\C(=O)N[C@@H]1C(=O)N2C(C(=O)O)=C(COC(N)=O)CS[C@H]12)c1ccco1 [Cefuroxime sodium]	82%	96%	96%	–	–	–
Cc1ccc(-c2cc(C(F)(F)F)nn2-c2ccc(S(N)(=O)=O)cc2)cc1 [Celecoxib]	71%	92%	81%	–	–	–
CC1=C(C(=O)O)N2C(=O)[C@@H](NC(=O)[C@H](N)c3ccccc3)[C@H]2SC1 [Cephalexin]	98%	98%	81%	–	–	–
CC(=O)OCC1=C(C(=O)O)N2C(=O)[C@@H](NC(=O)Cc3cccs3)[C@H]2SC1 [Cephalothin]	82%	97%	91%	–	–	–
CCS(=O)(=O)N1CCN(c2ccc(Nc3ncc(C(N)=O)c(NC4CC4)n3)cc2)CC1 [Cerdulatinib (PRT062070, PRT2070)]	95%	95%	82%	–	–	–
Cl.Cl.O=C(O)COCCN1CCN(C(c2ccccc2)c2ccc(Cl)cc2)CC1 (stereo not drawn) [Cetirizine DiHCl]	–	–	–	84%	92%	89%
CCCCCCCCCCCCCCCC[N+](C)(C)C.[Br-] [Cetrimonium Bromide (CTAB)]	92%	97%	103%	–	–	–
C[C@H](CCC(=O)O)[C@H]1CC[C@H]2[C@@H]3[C@H](O)C[C@@H]4C[C@H](O)CC[C@]4(C)[C@H]3CC[C@]12C [Chenodeoxycholic Acid]	115%	87%	102%	–	–	–
O=C(N[C@H](CO)[C@H](O)c1ccc([N+](=O)[O-])cc1)C(Cl)Cl [Chloramphenicol]	83%	96%	80%	–	–	–
[H]/N=C(\N/C(=N/[H])NCCCCCCNC(=N)NC(=N)Nc1ccc(Cl)cc1)Nc1ccc(Cl)cc1 [Chlorhexidine HCl]	118%	97%	112%	–	–	–
CC(=O)O[C@]1(C(C)=O)CC[C@H]2[C@@H]3C=C(Cl)C4=CC(=O)CC[C@]4(C)[C@H]3CC[C@@]21C [Chlormadinone acetate]	81%	85%	76%	–	–	–
CN1C(=O)CCS(=O)(=O)C1c1ccc(Cl)cc1 (stereo not drawn) [Chlormezanone]	91%	81%	127%	–	–	–

SMILES	% Phosphatase Activity (compared to DMSO) PRL-3 (recombinant PRL-3; [1])	% Phosphatase Activity (compared to DMSO) PRL-1 (recombinant PRL-1; [1])	% Phosphatase Activity (compared to DMSO) PRL-2 (recombinant PRL-2; [1])	% Phosphatase Activity (compared to DMSO) PRL-3 (recombinant PRL-3)	% Phosphatase Activity (compared to DMSO) PRL-1 (recombinant PRL-1)	% Phosphatase Activity (compared to DMSO) PRL-2 (recombinant PRL-2)
O=C(O)CCCc1ccc(N(CCCl)CCCl)cc1 [Chloroambucil]	77%	98%	103%	–	–	–
Cc1cc(O)ccc1Cl [Chlorocresol]	77%	89%	101%	–	–	–
NS(=O)(=O)c1cc2c(cc1Cl)N=CNS2(=O)=O [Chlorothiazide]	76%	105%	80%	–	–	–
COc1ccc(C(Cl)=C(c2ccc(OC)cc2)c2ccc(OC)cc2)cc1 [Chlorotrianisene]	92%	103%	110%	–	–	–
Oc1c(Cl)cc(Cl)c2cccnc12 [Chloroxine]	86%	90%	111%	–	–	–
Cc1cc(O)cc(C)c1Cl [Chloroxylenol]	92%	93%	112%	–	–	–
CCCNC(=O)NS(=O)(=O)c1ccc(Cl)cc1 [Chlorpropamide]	80%	98%	105%	–	–	–
CN(C)CC/C=C1/c2ccccc2Sc2ccc(Cl)cc21 [Chlorprothixene]	93%	98%	107%	–	–	–
Cc1ccc2c(Cl)cc(Cl)c(O)c2n1 [Chlorquinaldol]	71%	88%	102%	–	–	–
CN(C)[C@@H]1C(O)=C(C(N)=O)C(=O)[C@@]2(O)C(O)=C3C(=O)c4c(O)ccc(Cl)c4[C@@](C)(O)[C@H]3C[C@@H]12 [Chlortetracycline HCl]	77%	106%	95%	–	–	–
C[N+](C)(C)CCO.[Cl-] [Choline Chloride]	–	–	–	75%	99%	106%
O=C(O)c1cc(=O)c2ccccc2o1 [Chromocarb]	85%	95%	102%	–	–	–
CC(C)C(=O)OCC(=O)[C@@]12O[C@H](C3CCCCC3)O[C@@H]1C[C@H]1[C@@H]3CCC4=CC(=O)C=C[C@]4(C)[C@H]3[C@@H](O)C[C@@]12C [Ciclesonide]	88%	100%	108%	–	–	–
Cc1cc(C2CCCCC2)n(O)c(=O)c1.NCCO [Ciclopirox ethanolamine]	83%	106%	109%	–	–	–
CCOC(=O)[C@H](CCc1ccccc1)N[C@H]1CCCN2CCC[C@@H](C(=O)O)N2C1=O [Cilazapril Monohydrate]	73%	91%	111%	–	–	–
CC(C)[C@H]1C(=O)N[C@@H](CCCN=C(N)N)C(=O)NCC(=O)N[C@@H](CC(=O)O)C(=O)N[C@H](Cc2ccccc2)C(=O)N1C [Cilengitide]	96%	100%	91%	–	–	–

Reference: article PMC8119466, “A screen of FDA-approved drugs identifies inhibitors of protein tyrosine phosphatase 4A3 (PTP4A3 or PRL-3)” (Scientific Reports, 2021)
